Key:
[1] = test system: anesthetized, paralyzed and artificially ventilated Wistar rats; experiment: Respiratory response to hypoxia in the anesthetized rat (integrated phrenic nerve activity); assay type: in vivo; settings: for peak respiratory response in relation to the starting-point values: substance alone: N-oleoyl-dopamine 20 mg/kg, haloperidol 3 mg/kg, domperidone 0.3 mg/kg; for effect on respiration in the second inhibitory phase of the response to hypoxia: substance alone, 14% and 11 % hypoxia
Experimental: The study was performed in anesthetized, paralyzed and artificially ventilated Wistar rats. During the experiments, the integrated activity of the phrenic nerve was recorded. This activity reflects the frequency and tidal volume; their product represents the index of minute lung ventilation. The experimental protocol consisted of control recordings for two levels of the hypoxic stimulus: 14% and 11 % O2 in N2. Afterwards, N-oleoyl-dopamine in a dose of 20 mg/kg was given and the recordings were repeated. Additionally, experiments with two dopamine receptor antagonists were performed: first, with the penetrating through the blood-brain barrier D2 dopamine receptor antagonist haloperidol and second, with the non-penetrating through the blood-brain-barrier domperidone. In these studies, after the control recordings, haloperidol (in a dose of 3 mg/kg) or domperidone (in a dose of 0.3 mg/kg) were administered and the recordings repeated. Then, N-oleoyl-dopamine was given and the recordings were repeated.

awake Wistar rats = experiment: Respiration in normoxia and hypoxia in the awake rat (plethysmographic chamber); assay type: in vivo; settings: for Minute lung ventilation (peak respiratory response): after haloperidol 0.9 mg/kg i.p. and N-oleoyl-dopamine 40 mg/kg i.p.
Experimental: The study was performed in awake Wistar rats in a computerized plethysmographic chamber for small rodents. Respiratory frequency, tidal volume and pulmonary ventilation were measured. The experimental protocol included recordings in normoxia (breathing with atmospheric air), two levels of hypoxic stimulus (8% and 12% O2 in N2), intraperitoneal (i.p.) administration of N-oleoyl-dopamine (in a dose of 40 mg/kg) and repeated recordings for both normoxic and hypoxic states. Additionally, further experiments with the dopamine receptor antagonist haloperidol (in a dose of 0.9 mg/kg, i.p.) were performed. In those experiments, haloperidol was administered prior to N-oleoyl-dopamine and the recordings according the above-mentioned protocol were repeated. […]

[2] = target: TRPV1 vanilloid receptors (Homo sapiens, UniProt Q8NER1); settings: mentioned in the literature; cited from earlier work
[3] = test system: animal model of Parkinson's disease; experiment: Muscle rigidity in reserpine + α-methyl-tyrosine model of Parkinson's disease (EMG); assay type: in vivo, rats; settings: 10 mg/kg
Experimental: Symptoms of the Parkinson's disease, particularly muscle rigidity during flexion and extension movements in the ankle joint, were induced with reserpine (2.5 mg/kg, i.p.) and α-methyl-tyrosine (α-MT, 250 mg/kg, i.p.) administered at a 16-h interval. Afterwards, 3'-O-methyl-N-oleoyl-dopamine (O-Me-OLDA) was administered at a dose of 10 mg/kg and the muscular tone was measured using electromyographic (EMG) techniques. The control groups consisted of a) only vehiculum-treated animals in which no symptoms of Parkinson's disease were induced (control), b) animals who received only 3'-O-methyl-N-oleoyl-dopamine (O-Me-OLDA) and c) animals in which symptoms of Parkinson's disease were induced (reserpine + α-MT), but no other treatment was introduced.

brain = settings: after injection into the carotid artery; cited from earlier work
[4] = test system: rat model of Parkinson's disease; settings: cited from earlier work
[5] = in vitro conditions; cited from earlier work
rat = settings: cited from earlier work
[6] = test system: rat brain membrane system; assay type: in vivo, Wistar rats; settings: 20 mg/kg intraperitoneal
Experimental: N-oleoyl-dopamine was administered to Wistar rats at a dose of 20 mg/kg. After 1, 2, 3 or 24 hours the rat was sacrificed and the brain was resected. From the tissue, the whole lipid fraction, containing all lipids of the brain and the membrane fraction of the rat brain were obtained. Total lipids were obtained by homogenization of the brain in a mixture of chloroform and methanol 2:1 followed by an extraction of the water-soluble fractions and evaporation of the solvent. The membrane phase was obtained according to Xu et al. (Xu, 1998) and extracted with chloroform to obtain membrane lipids. All obtained samples were analyzed by the thin layer chromatography TLC on silica gel plates 60 using a mixture of chloroform and methanol 95:5 as the mobile phase and N-oleoyl-dopamine as the standard. The Retention Factor (Rf) for the N-oleoyl-dopamine standard was equal to 0.24-0.26. At the same level (the same Rf = […]) there were bands corresponding to N-oleoyl-dopamine in the biological samples, that is after systemic N-oleoyl-dopamine injection, but not in the control samples obtained with no N-oleoyl-dopamine injection.

[7] = 8% hypoxia, 40 mg/kg i.p., awake rat
[8] = 8% hypoxia, after 40 mg/kg i.p., awake rat
[9] = normoxia, 40 mg/kg i.p., awake rat
[10] = N-oleoyl-dopamine 20 mg/kg given after domperidone 0.3 mg/kg
[11] = N-oleoyl-dopamine 20 mg/kg given after haloperidol 3 mg/kg

Chain of TRPV1 vanilloid receptors (Q8NER1 whole entry): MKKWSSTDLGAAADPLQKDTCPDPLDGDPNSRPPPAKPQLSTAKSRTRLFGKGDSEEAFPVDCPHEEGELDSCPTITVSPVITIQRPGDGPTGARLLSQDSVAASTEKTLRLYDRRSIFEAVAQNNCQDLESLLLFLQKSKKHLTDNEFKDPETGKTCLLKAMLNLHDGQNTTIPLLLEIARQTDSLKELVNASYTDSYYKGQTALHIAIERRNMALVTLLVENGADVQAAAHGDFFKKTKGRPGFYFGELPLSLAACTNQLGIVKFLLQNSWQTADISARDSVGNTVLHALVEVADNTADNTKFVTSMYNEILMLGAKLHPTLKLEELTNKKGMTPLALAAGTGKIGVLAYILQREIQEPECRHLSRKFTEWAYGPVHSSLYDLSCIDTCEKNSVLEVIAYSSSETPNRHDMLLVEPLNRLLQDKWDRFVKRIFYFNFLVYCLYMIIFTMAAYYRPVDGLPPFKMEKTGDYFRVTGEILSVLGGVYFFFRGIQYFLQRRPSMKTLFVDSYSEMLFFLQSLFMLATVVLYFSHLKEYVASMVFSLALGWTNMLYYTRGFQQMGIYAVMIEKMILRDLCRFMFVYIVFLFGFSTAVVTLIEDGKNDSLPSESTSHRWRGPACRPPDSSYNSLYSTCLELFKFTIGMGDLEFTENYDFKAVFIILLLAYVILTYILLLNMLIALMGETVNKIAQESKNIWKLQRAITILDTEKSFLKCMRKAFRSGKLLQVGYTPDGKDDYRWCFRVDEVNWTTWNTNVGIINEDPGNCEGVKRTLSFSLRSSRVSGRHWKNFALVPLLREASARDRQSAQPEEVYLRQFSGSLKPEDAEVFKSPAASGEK

## O=C(CCCN1CCC(O)(c2ccc(Cl)cc2)CC1)c1ccc(F)cc1 [haloperidol, reference compound]
[1]; 11 % hypoxia (O2 in N2)
  peak respiratory response in relation to the starting-point values: 22 ±5%
[1]; 14% hypoxia (O2 in N2)
  peak respiratory response in relation to the starting-point values: 18 ±3%
[1]
  effect on respiration in the second inhibitory phase of the response to hypoxia: diminished the respiration

## CCCCCCCC/C=C\CCCCCCCC(=O)NCCc1ccc(O)c(OC)c1 [3'-O-methyl-N-oleoyl-dopamine]
Awake Wistar rats; [7]
  reduction of peak respiratory response: 19%
Awake Wistar rats; [8]
  peak respiratory response: 1939 ±255 ml/min/kg body weight
Awake Wistar rats; [9]
  decrease of resting ventilation during breathing with atmospheric oxygen: 23%
Awake Wistar rats; normoxia, after 40 mg/kg i.p., awake rat
  resting ventilation during breathing with atmospheric oxygen: 779.7 ±148.7 ml/min/kg body weight
[2]
  action towards TRPV1 vanilloid receptors: agonistic action
[3]; rats treated with reserpine 2.5 mg/kg i.p. + α-MT 250 mg/kg i.p.
  muscle rigidity: abolished muscle rigidity
[3]; substance alone, no Parkinson symptoms induced
  muscle tone in comparison to control recordings: did not change the muscle tone
[3]; three-fold elevated level of muscle tone by reserpine, Fig.1
  muscle tone (force needed for flexion and extension of the ankle joint): decreases nearly down to the control level

## CCCCCCCC/C=C\CCCCCCCC(=O)NCCc1ccc(O)c(O)c1 [N-oleoyl-dopamine]
brain
  penetration into the brain: ability to penetrate into the brain
[4]
  muscle rigidity: diminishes muscle rigidity
Awake Wistar rats; [7]
  reduction of peak respiratory response: 41%
Awake Wistar rats; [8]
  peak respiratory response: 1338.3 ±49.5 ml/min/kg body weight
Awake Wistar rats; 8% hypoxia
  Minute lung ventilation (peak respiratory response): 1947.3 ±66.5 ml/min/kg body weight
Awake Wistar rats; 12% hypoxia, 40 mg/kg i.p., awake rat
  reduction of peak respiratory response: 36%
Awake Wistar rats; 12% hypoxia, after 40 mg/kg i.p., awake rat
  peak respiratory response: 856.6 ±73.7 ml/min/kg body weight
Awake Wistar rats; 12% hypoxia
  Minute lung ventilation (peak respiratory response): 1484.0 ±92.3 ml/min/kg body weight
Awake Wistar rats; [9]
  decrease in respiratory frequency: 23%
  decrease of resting ventilation during breathing with atmospheric oxygen: 33%
[5]
  stability: highly stable
rat
  locomotor activity: increases the locomotor activity
[2]
  action towards TRPV1 vanilloid receptors: agonistic action
[6]; brain taken after 1, 2, 3 or 24 hours
  penetration into the membrane system of the brain: penetrates into the membrane system of the rat brain
[6]; rat brain
  time staying unchanged bound to the brain membrane system: at least 24 hours
[1]; 11 % hypoxia (O2 in N2)
  peak respiratory response in relation to the starting-point values: 38 ±9%
[1]; 14% hypoxia (O2 in N2)
  peak respiratory response in relation to the starting-point values: 18 ±10%
[1]; [10]
  effect on respiration in the inhibitory phase: still diminished the respiration
  effect on response to hypoxia in the stimulatory phase: did not change the response to hypoxia
[1]; [11]
  effect on respiratory response in the first stimulatory phase: did not restore the respiratory response
  effect on respiratory response in the second inhibitory phase: still diminished it
[1]
  effect on respiration in the second inhibitory phase of the response to hypoxia: reduced the respiratory response to hypoxia

## O=c1[nH]c2ccccc2n1CCCN1CCC(n2c(=O)[nH]c3cc(Cl)ccc32)CC1 [domperidone, reference compound]
[1]; 11 % hypoxia (O2 in N2)
  peak respiratory response in relation to the starting-point values: 26 ±5%
[1]; 14% hypoxia (O2 in N2)
  peak respiratory response in relation to the starting-point values: 21 ±5%

Reference: patent publication EP2324824A2, “Medical application of lipid derivatives of dopamine” (Instytut Medycyny Doswiadczalnej I Klinicznej, priority 2009, dated 2011)
